Laboratory results reported in article PMC9456463, “Intelligent Drug Delivery by Peptide-Based Dual-Function Micelles” (International Journal of Molecular Sciences, 2022).

System: 4T1 mouse breast cancer cell xenografted model
Assay: In vivo antitumor efficacy, 4T1 mouse breast cancer xenografted model
Conditions: BALB/c female mice, 4T1 tumor
Procedure: All animal experiments were performed complying with the guidelines for the care and use of laboratory animals of the Peking University Animal Study Committee’s requirements. Experimental procedures were carried out by a protocol approved for institutional animal care. A total of 24 BALB/c female mice (5–6 weeks) were used in this study. The PBS suspension containing 2.5 × 10^4 4T1 cells was injected subcutaneously into female BALB/c mice. […] The body weight and tumor volume of each mouse were measured at regular intervals to evaluate the antitumor effects and toxicity of different drugs. […] One mouse from each group was randomly selected, and its major organs and tumor tissues were collected, then Hematoxylin and Eosin (H&E) staining were utilized to evaluate the degree of apoptosis in mice.

`COc1cccc2c1C(=O)c1c(O)c3c(c(O)c1C2=O)C[C@@](O)(C(=O)CO)C[C@@H]3O[C@H]1C[C@H](N)[C@H](O)[C@H](C)O1` [DOX, Doxorubicin] was tested, and the “body weight change during treatment” value (tail vein injection) was “decreased significantly”, the final tumor weight (tail vein injection on days 0, 4, 8, 12) was 0.47 g and the “tumor volume increase after 14 days” value (tail vein injection on days 0, 4, 8, 12, group sacrificed on the 14th day) was 11.03 fold. The final tumor weight (tail vein injection on days 0, 4, 8, 12, listed as free DOX) was 0.67 g.
